According to ChEMBL document CHEMBL3044782, “Structure-activity relationships of derivatives of fusapyrone, an antifungal metabolite of Fusarium semitectum” (J Agric Food Chem, 2004):
Converted amounts (≈) assume the structure as drawn. The source made the active and inactive calls. No cut-off for these calls is given here.

Columns and labels:
Rhodotorula glutinis = experiment: Antifungal activity against Rhodotorula glutinis assessed as growth inhibition at 50 ug/ml after 24 to 72 hr by broth dilution method; assay type: functional, organism-based
Botrytis cinerea [1] = experiment: Antifungal activity against Botryotinia fuckeliana ITEM-966 after 24 hr by broth dilution method; assay type: functional; conditions: ITEM-966, 24 h
Botrytis cinerea [2] = experiment: Antifungal activity against Botryotinia fuckeliana ITEM-966 after 48 hr by broth dilution method; assay type: functional; conditions: ITEM-966, 48 h
Botrytis cinerea [3] = experiment: Antifungal activity against Botryotinia fuckeliana ITEM-966 after 72 hr by broth dilution method; assay type: functional; conditions: ITEM-966, 72 h
[4] = tested on: Meyerozyma guilliermondii; experiment: Antifungal activity against Meyerozyma guilliermondii assessed as growth inhibition at 50 ug/ml after 24 to 72 hr by broth dilution method; assay type: functional, organism-based
[5] = Toxicity against Artemia salina (brine shrimp) larvae after 24 hr; assay type: organism-based; conditions: in vivo
Aspergillus parasiticus [6] = experiment: Antifungal activity against Aspergillus parasiticus Speare ITEM-11 after 72 hr by broth dilution method; assay type: functional; conditions: Speare ITEM-11, 72 h
[7] = tested on: Penicillium brevicompactum; experiment: Antifungal activity against Penicillium brevicompactum Dierckx ITEM-449 after 72 hr by broth dilution method; assay type: functional; conditions: Dierckx ITEM-449, 72 h
Aspergillus parasiticus [8] = experiment: Antifungal activity against Aspergillus parasiticus Speare ITEM-11 after 24 hr by broth dilution method; assay type: functional; conditions: Speare ITEM-11, 24 h
[9] = tested on: Penicillium brevicompactum; experiment: Antifungal activity against Penicillium brevicompactum Dierckx ITEM-449 after 48 hr by broth dilution method; assay type: functional; conditions: Dierckx ITEM-449, 48 h
Aspergillus parasiticus [10] = experiment: Antifungal activity against Aspergillus parasiticus Speare ITEM-11 after 48 hr by broth dilution method; assay type: functional; conditions: Speare ITEM-11, 48 h
[11] = tested on: Penicillium brevicompactum; experiment: Antifungal activity against Penicillium brevicompactum Dierckx ITEM-449 after 24 hr by broth dilution method; assay type: functional; conditions: Dierckx ITEM-449, 24 h

| SMILES | growth inhibition (GI) (Rhodotorula glutinis) | MIC (Botrytis cinerea [1]) [µg/mL] | MIC (Botrytis cinerea [2]) [µg/mL] | MIC (Botrytis cinerea [3]) [µg/mL] | growth inhibition (GI) [4] | LC50 at 24 h [5] [µM] | MIC (Aspergillus parasiticus [6]) [µg/mL] | MIC [7] [µg/mL] | MIC (Aspergillus parasiticus [8]) [µg/mL] | MIC [9] [µg/mL] | MIC (Aspergillus parasiticus [10]) [µg/mL] | MIC [11] [µg/mL] |
| --- | --- | --- | --- | --- | --- | --- | --- | --- | --- | --- | --- | --- |
| CCCCCCC(C)CC(C)CC(CO)CC(C)CCC(O)C(C)(C)c1cc(O)c([C@@H]2O[C@H](CO)C[C@H](O)[C@H]2O)c(=O)o1 (stereo partly specified) | inactive | 50 (≈ 81.6 µM) | 50 (≈ 81.6 µM) | 50 (≈ 81.6 µM) | inactive |  |  |  |  |  |  |  |
| CCCCCCC(C)C/C(C)=C\C(CO)CC(C)CCC(O)C(C)(C)c1cc(O)c([C@@H]2O[C@H](CO)C[C@H](O)[C@H]2O)c(=O)o1 (stereo partly specified) | inactive | 50 (≈ 81.9 µM) | 50 (≈ 81.9 µM) | 50 (≈ 81.9 µM) | inactive |  |  |  |  |  |  |  |
| CCCCCCC(C)C/C(C)=C\C(/C=C(C)/C=C/C(O)C(C)(C)c1cc(OC)c([C@@H]2O[C@H](CO)C[C@H](O)[C@H]2O)c(=O)o1)CO (stereo partly specified) | inactive | 25 (≈ 40.3 µM) | 50 (≈ 80.5 µM) | 50 (≈ 80.5 µM) | inactive |  |  |  |  |  |  |  |
| CCCCCCC(C)C/C(C)=C\C(/C=C(C)/C=C/C(OC(C)=O)C(C)(C)c1cc(=O)c([C@@H]2O[C@H](COC(C)=O)C[C@H](OC(C)=O)[C@H]2OC(C)=O)c(OC)o1)COC(C)=O (stereo partly specified) | inactive |  |  |  | inactive | 51.9 |  |  |  |  |  |  |
| CCCCCCC(C)C/C(C)=C\C(/C=C(C)/C=C/C(OC(C)=O)C(C)(C)c1cc(OC)c([C@@H]2O[C@H](COC(C)=O)C[C@H](OC(C)=O)[C@H]2OC(C)=O)c(=O)o1)COC(C)=O (stereo partly specified) | inactive |  |  |  | inactive | 46.1 |  |  |  |  |  |  |
| CCCCCCC(C)C/C(C)=C\C(C)/C=C(C)/C=C/C(OC(C)=O)C(C)(C)c1cc(OC(C)=O)c([C@@H]2O[C@H](COC(C)=O)C[C@H](OC(C)=O)[C@H]2OC(C)=O)c(=O)o1 (stereo partly specified) | inactive |  |  |  | inactive | 39.7 |  |  |  |  |  |  |
| CCCCCCC(C)C/C(C)=C\C(/C=C(C)/C=C/C(OC(C)=O)C(C)(C)c1cc(OC(C)=O)c([C@@H]2O[C@H](COC(C)=O)C[C@H](OC(C)=O)[C@H]2OC(C)=O)c(=O)o1)COC(C)=O (stereo partly specified) | inactive |  |  |  | inactive | 85.6 |  |  |  |  |  |  |
| CCCCCCC(C)C/C(C)=C\C(/C=C(C)/C=C/C(O)C(C)(C)c1cc(O)c(CCO)c(=O)o1)CO (stereo unspecified) | inactive |  |  |  | inactive |  |  |  |  |  |  |  |
| Nc1c(Cl)cc([N+](=O)[O-])cc1Cl [ALLISAN] |  | 3.12 (≈ 15.1 µM) | 6.25 (≈ 30.2 µM) | 6.25 (≈ 30.2 µM) |  |  | > 25 | > 25 | > 25 | 25 (≈ 121 µM) | > 25 | 12.5 (≈ 60.4 µM) |
| CCCCNC(=O)n1c(NC(=O)OC)nc2ccccc21 [BENOMYL] |  | 0.19 (≈ 0.654 µM) | 0.19 (≈ 0.654 µM) | 0.19 (≈ 0.654 µM) |  |  | > 25 | > 25 | > 25 | > 25 | > 25 | > 25 |
| CCCCCCC(C)C/C(C)=C\C(C)/C=C(C)/C=C/C(O)C(C)(C)c1cc(O)c([C@@H]2O[C@H](CO)C[C@H](O)[C@H]2O)c(=O)o1 (stereo partly specified) [DEOXYNEOFUSAPYRONE] | inactive | 0.78 (≈ 1.32 µM) | 1.56 (≈ 2.64 µM) | 1.56 (≈ 2.64 µM) | inactive | 37.1 | 0.78 (≈ 1.32 µM) | 1.56 (≈ 2.64 µM) | 0.78 (≈ 1.32 µM) | 1.56 (≈ 2.64 µM) | 0.78 (≈ 1.32 µM) | 0.78 (≈ 1.32 µM) |
| CCCCCCC(C)C/C(C)=C\C(/C=C(C)/C=C/C(O)C(C)(C)c1cc(O)c([C@@H]2O[C@H](CO)C[C@H](O)[C@H]2O)c(=O)o1)CO (stereo partly specified) [Fusapyrone] | inactive | 1.56 (≈ 2.57 µM) | 3.12 (≈ 5.14 µM) | 6.25 (≈ 10.3 µM) | inactive | > 200 | 12.5 (≈ 20.6 µM) | 6.25 (≈ 10.3 µM) | 6.25 (≈ 10.3 µM) | 3.12 (≈ 5.14 µM) | 6.25 (≈ 10.3 µM) | 0.78 (≈ 1.29 µM) |
